Columns and labels:
HaCaT cells = experiment: MTT cell viability assay, dose response and time course; type: cell-based, human; settings: for reduction of keratinocyte turnover or proliferation rate as determined by MTT cell viability tests: 72 hours
Protocol: Cell viability was measured by MTT assay.
Untreated cells were used as negative controls. […] A proper blank control was subtracted from the measurements.
The assay was carried out in triplicate. Untreated cells were used as negative controls.

HaCaT keratinocyte cells [1] = experiment: Caspase-3 apoptosis assay; type: cell-based, human; settings: HaCaT keratinocytes cell line, 72 hours
Protocol: Apoptosis was measured by the caspase-3 assay. Results are shown as percent of control. Staurosporine (100 nM) served as positive control. Mean±SEM; n=3. *p<0.05 for reduction from untreated control. HaCaT cells were seeded in a 96 well plates in concentration of 0.3×10^6 cells/mL in […] in complete growth medium (DMEM supplemented with 10% FBS and antibiotics). […] The assay was carried out in triplicates. Untreated cells were used as negative controls. At the end of each incubation period, cell viability and the extent of apoptosis were measured by MTT and Caspase-3 assays, respectively. A proper blank control was subtracted from the measurements.

HaCaT keratinocyte cells [2] = experiment: BrdU ELISA assay of turnover rate (DNA replication); type: cell-based, human; settings: 48 hr incubation
Protocol: Turnover rate was measured by BrdU. […] Staurosporine served as positive control. Mean±SEM; n=3. *p<0.05 for reduction from untreated control.
HaCaT cells were incubated without or with the indicated concentrations of selenium cysteine for 48 hr. Turnover rate was measured by BrdU. […] Mean±SEM; n=3. *p<0.05 for reduction from untreated control.
To further investigate the impact of selenium methionine on the cells, the DNA replication rate of the cells was monitored by the BrdU assay. […] The assay was carried out in triplicate.
The BrdU ELISA assay was performed according to kit manufacturer instructions. Briefly, during the final 16 hours of culture, BrdU was added to each well. The cells were fixed, permeabilized, and DNA denatured by the addition of buffers. BrdU monoclonal antibody was pipetted into the wells and allowed to bind for one hour. Colorimetric evaluation of the turnover rate was recorded by ELISA reader. The BrdU assay captures a 16 hr window, which gives a wide view on the proliferation rate of the cells.
To further investigate the impact of selenium cysteine on the cells, the DNA replication rate of the cells was monitored by a BrdU incorporation assay. The purpose was to determine the ability of selenium cysteine at selected concentrations and times to reduce HaCaT keratinocytes cells turnover rate. The assay was carried out in triplicates. The positive control was stautosporine (100 nM). The cells were seeded in 6- or 96-well plates in complete growth medium at 37° C. with 5% CO2 under humidified atmosphere. The cells were incubated with or without selenium cysteine for the selected time points and concentrations determined in Example 6. BrdU incorporation was performed at the selected concentration and a 48 hr time point was chosen for the BrdU assay.

HaCaT keratinocyte cells [3] = experiment: Cell cycle analysis by flow cytometry (FACS); type: cell-based, human; settings: HaCaT cells synchronized by serum deprivation, 24 hr incubation
Protocol: HaCaT keratinocyte cells were synchronized by serum deprivation for 24 hr. […] Cell cycle was measured by FACS analysis. […] Staurosporine (100 nM) served as positive control. Mean±SEM; n=3. *p<0.05 for reduction from untreated control.
BrdU and FACS analyses were performed in one selected concentration. Two time points (24 hr and 48 hr) were chosen for the flow cytometry and one for the BrdU assay. In order to induce culture synchronization, serum-free medium was used prior of BrdU/FACS analyses in the 24 hr treatment groups.
The effect of selenium methionine on cell cycle was analyzed by flow cytometry (FACS). At the end of the treatment, the cells were harvested by trypsinization and counted. Approximately 1.3×10^6 cells were transferred to a new tube, centrifuged for 5 min at 1500 rpm (2-8° C.), and suspended in 0.5 ml of ice cold PBS. Then, the cells were fixed by adding 2.5 ml of 70% ethanol (2-8° C.) in a dropwise manner. The cells were stored at 2-8° C. for 48 hr at this stage. After 30 min of incubation, the samples were washed 3×1 mL PBS and 0.5 mL of ribonuclease stock solution (0.2 mg/mL supplemented with 0.1% (v/v) Triton x-100 in PBS) were added to the cell pellet for 1 hr at rt. This step was performed to ensure only DNA, not RNA, was stained. 0.5 mL of propidium iodide (PI, 100 μg/ml) was added to the samples still suspended in the ribonuclease stock solution. […]

Human stratum corneum = experiment: Thiol degradation assay ex vivo in human skin tissue; settings: 2 hr
Protocol: Then, the mixtures were analyzed for free thiol moieties concentration.
The skin was cleaned, washed with PBS, and then the epidermis was peeled. The epidermis was incubated with 100 mL of 0.005% trypsin (in PBS) at 37° C. overnight. The stratum corneum was washed with HPLC grade water and transferred to a clean Eppendorf tube. The water was evaporated by SpeedVac and the stratum corneum was washed once again with ice cold hexane to exclude residuals lipids in the fraction. The solvent was removed by SpeedVac.
The stratum corneum pieces were weighed in order to determine their dry weight. 50 mg of dried stratum corneum was dissolved in 1M NaOH and mixed thoroughly for 1 hr. Stratum corneum was treated with or without the test items for 2 hr. L-acetylcysteine containing free thiol moieties served as positive control. To isolate the free thiol moieties from the mixture, the samples or blank (50 μl) were incubated with equal volume of TCA (trichloroacetic acid) for 5 min. Then, the tubes were centrifuge for 15 min at 10,000 rpm at room temperature. The pellet was evaluated. Ellman's reagent stock solution (3 mM) was prepared in methanol. […] The 96-well plates were incubated for 5 min at RT, mixed, and the optical absorbance was recorded at 412 nm. A standard calibration curve was read simultaneously without the TCA precipitation step.

Compound | reduction of keratinocyte turnover or proliferation rate as determined by MTT cell viability tests (HaCaT cells) | activation of caspase-3 apoptosis marker (apoptotic effect) (HaCaT keratinocyte cells [1]) | reduction of proliferation of keratocytes (BrdU, DNA replication) (HaCaT keratinocyte cells [2]) | effect on cell cycle (cell arrest properties) (HaCaT keratinocyte cells [3]) | elevation in thiol degradation assay releasing free SH moieties (Human stratum corneum) | cell viability (MTT) (HaCaT cells; positive control 0.1%) | effect on proliferation of the cells (DNA replication, BrdU) (HaCaT keratinocyte cells [2])
selenium methionine | significant dose-dependent effect | significant increase | up to 60% | elongation of the S phase in the cell cycle and lowered M phase | up to 35% | – | –
CCCCCCCCCCCCOS(=O)(=O)[O-].[Na+] [SDS] | – | – | – | – | – | significantly decreased cell viability | –
CN[C@@H]1C[C@H]2O[C@@](C)([C@@H]1OC)n1c3ccccc3c3c4c(c5c6ccccc6n2c5c31)C(=O)NC4 [staurosporine] | – | – | – | – | – | – | dose-dependent reduction
selenium cysteine | significant dose-dependent effect | – | more than 90% | – | – | – | –
O=C(O)c1ccccc1O [SA, Salicylic acid] | no dose dependent effect | significant increase | – | no cell arrest properties | caused elevation | – | does not affect the proliferation

— patent US20230013824A1, “COMPOSITIONS FOR THE TREATMENT OF HYPERKERATOSIS DISORDERS” (Azura Ophthalmics Ltd., priority 2016, published 2023)
